# Measurements published in PMC6430112 (Xenobiotica; the fate of foreign compounds in biological …, 2018).
# Values joined by “and” are separate entries in the source; they are usually repeats but may differ in a detail not shown here. Equal entries are not always repeated.
# How the values were obtained:
# CYP3A4 = CYP3A4 (Homo sapiens, UniProt P08684); test: Oxidation by purified CYP3A4 in reconstituted monooxygenase system, LC-MS/MS; type: in vitro ADME; conditions: substrate flavanone
# CYP2A6 = molecular target: T1, CYP2A6 (Homo sapiens, UniProt P11509); test: Oxidation by purified CYP2A6 in reconstituted monooxygenase system, LC-MS/MS; type: in vitro ADME; conditions: substrate flavanone
# T1 sequence (P11509 1-494): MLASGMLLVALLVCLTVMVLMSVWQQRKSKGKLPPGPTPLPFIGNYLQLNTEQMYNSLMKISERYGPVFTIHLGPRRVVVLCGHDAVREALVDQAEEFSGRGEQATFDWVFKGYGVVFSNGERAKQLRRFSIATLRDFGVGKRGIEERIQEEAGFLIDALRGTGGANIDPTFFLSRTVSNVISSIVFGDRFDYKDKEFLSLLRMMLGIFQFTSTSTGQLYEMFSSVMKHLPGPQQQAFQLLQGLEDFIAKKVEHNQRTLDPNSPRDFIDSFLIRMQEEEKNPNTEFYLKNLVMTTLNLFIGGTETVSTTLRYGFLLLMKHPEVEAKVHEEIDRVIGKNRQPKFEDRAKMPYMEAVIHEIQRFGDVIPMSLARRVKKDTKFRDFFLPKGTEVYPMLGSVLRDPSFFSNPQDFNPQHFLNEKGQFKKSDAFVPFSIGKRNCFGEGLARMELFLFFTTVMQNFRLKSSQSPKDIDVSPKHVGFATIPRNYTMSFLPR
# CYP1A2 = molecular target: T2, CYP1A2 (Homo sapiens, UniProt P05177); test: Oxidation by purified CYP1A2 in reconstituted monooxygenase system, LC-MS/MS; type: in vitro ADME; conditions: substrate flavanone
# T2 sequence (P05177 1-516): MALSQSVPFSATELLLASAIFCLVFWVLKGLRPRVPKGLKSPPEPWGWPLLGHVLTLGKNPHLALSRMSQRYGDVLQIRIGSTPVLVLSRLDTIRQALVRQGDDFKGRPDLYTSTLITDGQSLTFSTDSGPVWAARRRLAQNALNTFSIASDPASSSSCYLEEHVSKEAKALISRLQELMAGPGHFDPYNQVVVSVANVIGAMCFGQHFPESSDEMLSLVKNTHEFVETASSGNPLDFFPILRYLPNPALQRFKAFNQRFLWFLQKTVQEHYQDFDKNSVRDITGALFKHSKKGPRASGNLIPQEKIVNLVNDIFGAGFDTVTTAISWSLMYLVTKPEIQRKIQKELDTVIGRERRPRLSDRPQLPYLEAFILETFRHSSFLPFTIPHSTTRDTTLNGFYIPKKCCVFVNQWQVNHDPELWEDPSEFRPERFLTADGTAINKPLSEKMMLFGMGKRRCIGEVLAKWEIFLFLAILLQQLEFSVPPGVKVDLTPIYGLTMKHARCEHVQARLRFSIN
# CYP1B1 = molecular target: T3, CYP1B1 (Homo sapiens, UniProt Q16678); test: Oxidation by purified CYP1B1 in reconstituted monooxygenase system, LC-MS/MS; type: in vitro ADME; conditions: substrate flavanone
# T3 sequence (Q16678 1-543): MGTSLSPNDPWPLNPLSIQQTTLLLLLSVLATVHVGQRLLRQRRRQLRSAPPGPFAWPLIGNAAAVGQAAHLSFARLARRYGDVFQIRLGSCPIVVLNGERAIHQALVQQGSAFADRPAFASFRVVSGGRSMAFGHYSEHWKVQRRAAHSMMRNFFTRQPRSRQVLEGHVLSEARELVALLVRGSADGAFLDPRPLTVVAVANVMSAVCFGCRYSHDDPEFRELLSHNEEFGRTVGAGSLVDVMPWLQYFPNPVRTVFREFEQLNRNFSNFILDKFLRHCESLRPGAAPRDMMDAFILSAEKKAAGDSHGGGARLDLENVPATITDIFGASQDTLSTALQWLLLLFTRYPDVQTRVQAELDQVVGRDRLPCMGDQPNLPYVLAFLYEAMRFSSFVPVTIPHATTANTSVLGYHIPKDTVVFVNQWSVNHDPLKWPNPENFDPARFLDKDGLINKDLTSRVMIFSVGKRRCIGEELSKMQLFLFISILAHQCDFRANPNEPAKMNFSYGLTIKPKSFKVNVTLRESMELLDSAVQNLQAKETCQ
# CYP1A1 = molecular target: T4, CYP1A1 (Homo sapiens, UniProt P04798); test: Oxidation by purified CYP1A1 in reconstituted monooxygenase system, LC-MS/MS; type: in vitro ADME; conditions: substrate flavanone
# T4 sequence (P04798 1-512): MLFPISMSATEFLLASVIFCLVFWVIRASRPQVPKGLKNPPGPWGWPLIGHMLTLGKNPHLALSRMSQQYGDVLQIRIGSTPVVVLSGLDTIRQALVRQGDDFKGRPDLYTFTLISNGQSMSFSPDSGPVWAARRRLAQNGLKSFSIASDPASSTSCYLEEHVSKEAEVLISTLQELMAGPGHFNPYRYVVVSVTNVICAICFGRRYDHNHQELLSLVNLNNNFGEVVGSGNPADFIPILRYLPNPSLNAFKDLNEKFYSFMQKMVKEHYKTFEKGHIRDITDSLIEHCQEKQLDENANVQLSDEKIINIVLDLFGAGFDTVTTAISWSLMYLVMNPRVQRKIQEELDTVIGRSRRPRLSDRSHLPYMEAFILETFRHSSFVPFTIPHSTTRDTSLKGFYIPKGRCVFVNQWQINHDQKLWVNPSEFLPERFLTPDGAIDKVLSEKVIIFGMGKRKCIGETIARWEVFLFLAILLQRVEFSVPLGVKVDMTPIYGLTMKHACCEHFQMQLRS
# CYP2C9 = CYP2C9 (Homo sapiens, UniProt P11712); test: Oxidation by purified CYP2C9 in reconstituted monooxygenase system, LC-MS/MS; type: in vitro ADME; conditions: substrate flavanone
# CYP2A13 = molecular target: T5, CYP2A13 (Homo sapiens, UniProt Q16696); test: Oxidation by purified CYP2A13 in reconstituted monooxygenase system, LC-MS/MS; type: in vitro ADME; conditions: substrate flavanone
# T5 sequence (Q16696 1-494): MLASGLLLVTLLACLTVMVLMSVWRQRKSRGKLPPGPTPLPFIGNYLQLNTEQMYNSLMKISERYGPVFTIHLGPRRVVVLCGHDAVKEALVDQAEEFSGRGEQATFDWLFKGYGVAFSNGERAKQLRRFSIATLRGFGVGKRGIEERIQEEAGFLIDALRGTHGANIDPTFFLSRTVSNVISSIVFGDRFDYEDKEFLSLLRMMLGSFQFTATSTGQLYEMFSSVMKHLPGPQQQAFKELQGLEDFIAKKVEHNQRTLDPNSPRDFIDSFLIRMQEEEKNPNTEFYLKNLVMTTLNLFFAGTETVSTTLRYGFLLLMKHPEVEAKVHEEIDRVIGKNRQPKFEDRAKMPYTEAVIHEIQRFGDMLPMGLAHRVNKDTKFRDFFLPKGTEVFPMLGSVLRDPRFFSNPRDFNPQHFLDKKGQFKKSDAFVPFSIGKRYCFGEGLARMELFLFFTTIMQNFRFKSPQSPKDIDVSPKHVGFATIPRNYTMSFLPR
# wild-type CYP2A6 = conditions: substrate flavanone, ref Uno et al. (2013; 2015); cited from earlier work
# rat liver microsomes = conditions: ref Kagawa et al. (2004); cited from earlier work
# Chain of CYP2C9 (P11712 whole entry): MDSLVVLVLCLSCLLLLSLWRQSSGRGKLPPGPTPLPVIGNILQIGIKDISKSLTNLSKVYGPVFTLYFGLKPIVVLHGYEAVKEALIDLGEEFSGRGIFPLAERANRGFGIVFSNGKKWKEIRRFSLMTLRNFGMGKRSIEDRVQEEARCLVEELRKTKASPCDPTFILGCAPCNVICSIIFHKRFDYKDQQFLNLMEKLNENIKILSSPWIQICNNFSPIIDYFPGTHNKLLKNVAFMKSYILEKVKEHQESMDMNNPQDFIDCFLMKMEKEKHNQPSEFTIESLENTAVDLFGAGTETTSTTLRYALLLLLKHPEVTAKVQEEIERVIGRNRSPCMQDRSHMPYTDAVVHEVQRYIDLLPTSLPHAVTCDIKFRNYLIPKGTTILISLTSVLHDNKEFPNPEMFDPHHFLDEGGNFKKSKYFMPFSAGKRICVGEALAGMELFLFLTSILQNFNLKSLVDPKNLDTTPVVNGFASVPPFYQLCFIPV
# Chain of CYP3A4 (P08684 whole entry): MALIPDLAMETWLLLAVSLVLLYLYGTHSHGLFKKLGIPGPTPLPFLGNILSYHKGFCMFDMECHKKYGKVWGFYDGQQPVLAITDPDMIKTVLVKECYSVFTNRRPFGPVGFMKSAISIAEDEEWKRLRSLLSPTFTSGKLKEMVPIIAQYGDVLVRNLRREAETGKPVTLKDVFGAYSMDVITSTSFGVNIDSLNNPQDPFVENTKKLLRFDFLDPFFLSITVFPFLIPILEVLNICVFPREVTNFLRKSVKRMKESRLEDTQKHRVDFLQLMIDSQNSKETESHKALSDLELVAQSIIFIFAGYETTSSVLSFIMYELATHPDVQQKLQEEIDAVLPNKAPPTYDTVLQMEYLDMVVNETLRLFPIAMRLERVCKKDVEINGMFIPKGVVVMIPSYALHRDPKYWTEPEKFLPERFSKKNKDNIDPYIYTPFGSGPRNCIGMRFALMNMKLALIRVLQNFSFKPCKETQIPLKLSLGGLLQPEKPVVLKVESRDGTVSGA
structure (smiles),measurement,setting,value
O=C1CC(c2ccccc2)Oc2ccccc21 (stereo not drawn) [flavanone],Formation of flavone and hydroxylated products: 2´-OHFva,CYP3A4,<0.001 nmol/min/nmol P450
same,Formation of flavone and hydroxylated products: 3´-OHFva,CYP3A4,<0.001 nmol/min/nmol P450
same,Formation of flavone and hydroxylated products: 4’´-OHFva,CYP3A4,<0.001 nmol/min/nmol P450
same,Formation of flavone and hydroxylated products: 6OHF,CYP3A4,<0.001 nmol/min/nmol P450
same,Formation of flavone and hydroxylated products: 6OHFva,CYP3A4,<0.001 nmol/min/nmol P450
same,Formation of flavone and hydroxylated products: 7OHF,CYP3A4,<0.001 nmol/min/nmol P450
same,Formation of flavone and hydroxylated products: 7OHFva,CYP3A4,<0.001 nmol/min/nmol P450
same,Formation of flavone and hydroxylated products: Flavone,CYP3A4,0.057 ± 0.011 nmol/min/nmol P450
same,Formation of flavone and hydroxylated products: 2´-OHFva,CYP2A6; CYP2A6,4.76 ± 0.32 nmol/min/nmol P450
same,Formation of flavone and hydroxylated products: 3´-OHFva,CYP2A6; CYP2A6,0.031 ± 0.003 nmol/min/nmol P450
same,Formation of flavone and hydroxylated products: 4’´-OHFva,CYP2A6; CYP2A6,0.20 ± 0.01 nmol/min/nmol P450
same,Formation of flavone and hydroxylated products: 6OHF,CYP2A6; CYP2A6,0.003 ± 0.001 nmol/min/nmol P450
same,Formation of flavone and hydroxylated products: 6OHFva,CYP2A6; CYP2A6,1.29 ± 0.08 nmol/min/nmol P450
same,Formation of flavone and hydroxylated products: 7OHF,CYP2A6; CYP2A6,<0.001 nmol/min/nmol P450
same,Formation of flavone and hydroxylated products: 7OHFva,CYP2A6; CYP2A6,<0.001 nmol/min/nmol P450
same,Formation of flavone and hydroxylated products: Flavone,CYP2A6; CYP2A6,0.72 ± 0.06 nmol/min/nmol P450
same,Turnover number of 2´OHFva formation,CYP2A6; CYP2A6,4.8 nmol/min/nmol CYP2A6
same,Turnover number of 6OHFva formation,CYP2A6; CYP2A6,1.3 nmol/min/nmol CYP2A6
same,Turnover number of flavone formation,CYP2A6; CYP2A6,0.72 nmol/min/nmol CYP2A6
same,Turnover rate of 2´-hydroxyflavanone formation,CYP2A6; CYP2A6,4.8 min⁻¹ and 4.76 min⁻¹
same,Turnover rate of 6-hydroxyflavanone formation,CYP2A6; CYP2A6,1.3 min⁻¹ and 1.29 min⁻¹
same,Turnover rate of flavone formation,CYP2A6; CYP2A6,0.72 min⁻¹
same,Flavone formation turnover rate by CYP2A6 relative to CYP2A13,CYP2A6; CYP2A6 higher than CYP2A13,~ 3 fold
same,Formation of flavone and hydroxylated products: 2´-OHFva,CYP1A2,0.074 ± 0.012 nmol/min/nmol P450
same,Formation of flavone and hydroxylated products: 3´-OHFva,CYP1A2,0.117 ± 0.023 nmol/min/nmol P450
same,Formation of flavone and hydroxylated products: 4’´-OHFva,CYP1A2,0.33 ± 0.05 nmol/min/nmol P450
same,Formation of flavone and hydroxylated products: 6OHF,CYP1A2,<0.001 nmol/min/nmol P450
same,Formation of flavone and hydroxylated products: 6OHFva,CYP1A2,0.19 ± 0.02 nmol/min/nmol P450
same,Formation of flavone and hydroxylated products: 7OHF,CYP1A2,0.002 ± 0.002 nmol/min/nmol P450
same,Formation of flavone and hydroxylated products: 7OHFva,CYP1A2,0.009 ± 0.001 nmol/min/nmol P450
same,Formation of flavone and hydroxylated products: Flavone,CYP1A2,0.008 ± 0.001 nmol/min/nmol P450
same,Formation of flavone and hydroxylated products: 2´-OHFva,CYP1B1,0.046 ± 0.009 nmol/min/nmol P450
same,Formation of flavone and hydroxylated products: 3´-OHFva,CYP1B1,0.013 ± 0.002 nmol/min/nmol P450
same,Formation of flavone and hydroxylated products: 4’´-OHFva,CYP1B1,0.19 ± 0.04 nmol/min/nmol P450
same,Formation of flavone and hydroxylated products: 6OHF,CYP1B1,0.002 ± 0.001 nmol/min/nmol P450
same,Formation of flavone and hydroxylated products: 6OHFva,CYP1B1,0.33 ± 0.05 nmol/min/nmol P450
same,Formation of flavone and hydroxylated products: 7OHF,CYP1B1,<0.001 nmol/min/nmol P450
same,Formation of flavone and hydroxylated products: 7OHFva,CYP1B1,0.003 ± 0.001 nmol/min/nmol P450
same,Formation of flavone and hydroxylated products: Flavone,CYP1B1,0.046 ± 0.002 nmol/min/nmol P450
same,Formation of flavone and hydroxylated products: 2´-OHFva,CYP1A1,0.008 ± 0.004 nmol/min/nmol P450
same,Formation of flavone and hydroxylated products: 3´-OHFva,CYP1A1,0.004 ± 0.002 nmol/min/nmol P450
same,Formation of flavone and hydroxylated products: 4’´-OHFva,CYP1A1,0.074 ± 0.002 nmol/min/nmol P450
same,Formation of flavone and hydroxylated products: 6OHF,CYP1A1,0.002 ± 0.001 nmol/min/nmol P450
same,Formation of flavone and hydroxylated products: 6OHFva,CYP1A1,0.058 ± 0.008 nmol/min/nmol P450
same,Formation of flavone and hydroxylated products: 7OHF,CYP1A1,<0.001 nmol/min/nmol P450
same,Formation of flavone and hydroxylated products: 7OHFva,CYP1A1,0.007 ± 0.003 nmol/min/nmol P450
same,Formation of flavone and hydroxylated products: Flavone,CYP1A1,0.053 ± 0.003 nmol/min/nmol P450
same,Formation of flavone and hydroxylated products: 2´-OHFva,CYP2C9,0.012 ± 0.001 nmol/min/nmol P450
same,Formation of flavone and hydroxylated products: 3´-OHFva,CYP2C9,0.003± 0.001 nmol/min/nmol P450
same,Formation of flavone and hydroxylated products: 4’´-OHFva,CYP2C9,0.040± 0.001 nmol/min/nmol P450
same,Formation of flavone and hydroxylated products: 6OHF,CYP2C9,<0.001 nmol/min/nmol P450
same,Formation of flavone and hydroxylated products: 6OHFva,CYP2C9,0.091± 0.001 nmol/min/nmol P450
same,Formation of flavone and hydroxylated products: 7OHF,CYP2C9,<0.001 nmol/min/nmol P450
same,Formation of flavone and hydroxylated products: 7OHFva,CYP2C9,<0.001 nmol/min/nmol P450
same,Formation of flavone and hydroxylated products: Flavone,CYP2C9,0.009 ± 0.002 nmol/min/nmol P450
same,Formation of flavone and hydroxylated products: 2´-OHFva,CYP2A13,0.027 ± 0.002 nmol/min/nmol P450
same,Formation of flavone and hydroxylated products: 3´-OHFva,CYP2A13,0.011 ± 0.004 nmol/min/nmol P450
same,Formation of flavone and hydroxylated products: 4’´-OHFva,CYP2A13,0.013 ± 0.001 nmol/min/nmol P450
same,Formation of flavone and hydroxylated products: 6OHF,CYP2A13,0.004 ± 0.001 nmol/min/nmol P450
same,Formation of flavone and hydroxylated products: 6OHFva,CYP2A13,0.17 ± 0.01 nmol/min/nmol P450
same,Formation of flavone and hydroxylated products: 7OHF,CYP2A13,<0.001 nmol/min/nmol P450
same,Formation of flavone and hydroxylated products: 7OHFva,CYP2A13,0.005 ± 0.001 nmol/min/nmol P450
same,Formation of flavone and hydroxylated products: Flavone,CYP2A13,0.29 ± 0.02 nmol/min/nmol P450
same,Turnover rate of flavone formation,CYP2A13,0.29 min⁻¹
same,Turnover number of formation of 2´-hydroxyflavanone,wild-type CYP2A6,0.32 min⁻¹
same,Kinetic deuterium isotope effect for conversion of flavanone to flavone,rat liver microsomes,1.5
